The text below walks through data of patent publication US20230018737A1, “AN IN VITRO KIT AND A METHOD FOR D[…] TRANSPLANTS AND/OR AUTOIMMUNE DISEASES AND/OR TUMOR DISEASES AND/OR VA[…] A MESSENGER-SUBSTANCE-CONTAINING SUPERNATANT, CELL-[…], AND A COMBINATION, FOR USE IN D[…] TRANSPLANTS AND/OR AUTOIMMUNE DISEASES AND/OR TUMOR DISEASES AND/OR VACCINATIONS” (HOT Screen GmbH, priority 2019, published 2023).

For one assay, the system named is whole blood cultures. The format is cell-based, human.
The subject of another assay is T cells. The format is cell-based, human.

Where “and” joins values, the source holds several entries; their conditions need not be identical. Equal values may be shown once.

In the case of tetanus toxoid [TeTo], the IL-10 in the assay with whole blood cultures was 8.47 pg/mL and 8.24 pg/mL. Besides, in the assay with T cells, the IL-2 is listed as 12.1 pg/mL, the “IL-2 Conc” value amounted to 12.1 pg/mL and the “IL-2 SI (stimulation index)” value came out at 314.
